# Assay results reported in patent US20130165489A1, “Small Molecule Modulators of HIV-1 Capsid Stability and Methods Thereof” (The Trustees of the University of Pennsylvania, priority 2010, published 2013).
# “Also recorded” adds a separate entry of the source.
# How the values were obtained:
# [1] = biological target: HIV-1NL4-3 CA (Human immunodeficiency virus type 1 group M subtype B, UniProt P12493); assay: Surface plasmon resonance direct binding to HIV-1 CA; details: SPR
# Description: Interaction analyses were performed on a Biacore 3000 optical biosensor (Biacore, Piscataway Township, NJ) with simultaneous monitoring of two flow cells Immobilization of the CA protein to CM7 sensor chips was performed following the standard amine coupling procedure according to the manufacturer's specifications. Briefly, carboxyl groups on the sensor chip surface were activated by injection of 50 μL of a solution containing 0.2 M EDC (1-ethyl-3-[3-dimethylamino-propyl]carbodiimide hydrochloride) and 0.05 M NHS(N-hydroxysuccinimide) at a flow rate of 5 μL min^−1. Next, the 50 μL of CA protein at a concentration of 6 μM in pH 5.0, 10 mM sodium acetate buffer was passed over the chip surface at 25° C. at a flow rate of 5 μL min^−1 Then, after unreacted protein had been washed out, excess active ester groups on the sensor surface were capped by the injection of 50 μL of 1 M ethanolamine (pH 8.0) at a flow rate of 5 μL min^−1. A reference surface with the nonspecific anti-gp120 antibody 17b (Thali et al., 1993, J. Virol. 67:3978-88) immobilized was generated at the same time under the same conditions and was used as background to correct nonspecific binding and for instrument and buffer artifacts.
# Stock solutions of CMPD-E and CMPD-F were prepared by dissolving the compounds in 100% dimethyl sulfoxide (DMSO) to a final concentration of 10 mM. To prepare the sample for analysis, 30 μL of the compound stock solution was added to sample preparation buffer (25 mM Tris-HCl, 150 mM NaCl, pH 7.5) to a final volume of 1 mL and mixed thoroughly. Preparation of analyte in this manner ensured that the concentration of DMSO was matched with that of running buffer with 3% DMSO. Lower concentrations of each compound were then prepared by twofold serial dilutions into running buffer (25 mM Tris-HCl, 150 mM NaCl, 3% DMSO, pH 7.5). These compound dilutions were then injected over the control and CA surfaces at a flow rate of 50 μL min^−1, for a 2-min association phase, followed by a 5-min dissociation phase. […]
# [2] = test system: DENV2; assay: DENV2 focus reduction assay using BHK cells; details: Dengue virus, read-out: average IC50, DENV2 focus reduction
# [3] = in vitro; format: cell-based; details: hamster
# [4] = test system: HIV-1IIIB; assay: Anti-HIV efficacy in P4-R5 MAGI cells; format: cell-based
# Description: P4-R5 MAGI cells (NIH AIDS Research & Reference Reagent Program, catalog #3580) were maintained in Dulbecco's Modified Eagle's Media (DMEM) supplemented with 10% fetal bovine serum (FBS), sodium bicarbonate (0.05%), antibiotics (penicillin, streptomycin, and kanamycin at 40 μg/mL each), and puromycin (1 μg/mL). Initial studies were performed using the HIV-1-susceptible P4-R5 MAGI reporter cell line. HIV-1 infection of these cells (which express CD4, CXCR4, and CCR5) results in LTR-directed β-galactosidase expression, which can be readily and accurately quantitated. Approximately 18 h prior to the experiment, P4-R5 MAGI cells were plated at a concentration of 1.2×10^4 cells/well in a flat-bottom 96-well plate. On the day of the experiment, cells were infected in quadruplicate with HIV-1 strain IIIB (Advanced Biotechnologies, Inc., Columbia, Md.) in the presence or absence of putative CA inhibitors at the indicated concentrations. After 48 h incubation at 37° C., cells were assayed for infection using the Galacto-Star One-Step β-Galactosidase Reporter Gene Assay System (Applied Biosystems, Bedford, Mass.).
# [5] = test system: DENV3; assay: CPE assay, DENV3; format: cell-based; details: Dengue virus, DENV3, Vero C1008; Vero E6 cells; 3 replicates
# [6] = test system: DENV (serotypes 1-4); assay: CPE assay, Dengue serotypes 1-4; format: cell-based, Dengue virus; details: Dengue virus; Vero cells; read-out: average half-maximal inhibitory concentration over DENV serotypes 1-4
# [7] = test system: DENV1; assay: CPE assay, DENV1; format: cell-based; details: Dengue virus, DENV1, Vero C1008; Vero E6 cells; 3 replicates
# [8] = test system: DENV4; assay: CPE assay, DENV4; format: cell-based; details: Dengue virus, DENV4, Vero C1008; Vero E6 cells; 3 replicates
# [9] = test system: RSV; assay: CPE assay, RSV; format: cell-based, respiratory syncytial virus
# [10] = test system: Vero cells; details: over the concentration range tested
# [11] = test system: DENV2; assay: CPE assay, DENV2; format: cell-based; details: Dengue virus, DENV2, Vero C1008; Vero E6 cells; 3 replicates
# [12] = test system: West Nile virus (WNV); assay: West Nile Virus virus-like particle (VLP) assay on Vero cells; format: cell-based; details: 24 hr, firefly luciferase reporter, 2 replicates
# Description: (§1) The activity of CMPD-A against a high-priority flaviviral pathogen, West Nile virus (WNV), was evaluated. The compound was tested in a West Nile Virus, virus-like particle (VLP) assay, which is a 24 hr assay on Vero cells using a firefly luciferase reporter to measure viral replication activity. In these tests IC50 values of 30 (±13) μM were obtained, with no toxicity at 100 μM using either both MTT or a renilla luciferase cellular assay (FIG. 16).
# [13] = test system: producer cells (293T); format: cell-based, human
# Description: Moreover, these compounds appeared to be working at different stages of the viral life-cycle—one at an early post-entry event (CMPD-A) and the other at an assembly or post-integration event in HIV-1 replication (CMPD-D).
# [14] = test system: HIV-1 92BR030 (subtype B clinical isolate); assay: Anti-HIV efficacy in human PBMCs, isolate 92BR030; format: cell-based; details: primary PBMCs
# Description: HIV human peripheral blood mononuclear cell (PBMC) assays were performed as described previously (Lanier et al., 2010, Antimicrob. Agents Chemother. 54:2901-09; Ptak et al., 2008, Antimicrob. Agents Chemother. 52:1302-17). Briefly, fresh PBMCs, seronegative for HIV and hepatitis B virus (HBV), were isolated from blood samples of the screened donors (Biological Specialty Corporation, Colmar, Pa.) by using lymphocyte separation medium (LSM; density, 1.078±0.002 g/ml; Cellgro; Mediatech, Inc.) by following the manufacturer's instructions. Cells were stimulated by incubation in 4 μg/mL phytohemagglutinin (PHA; Sigma) for 48 to 72 h. Mitogenic stimulation was maintained by the addition of 20 U/mL recombinant human interleukin-2 (rhIL-2; R&D Systems, Inc.) to the culture medium. PHA-stimulated PBMCs from at least two donors were pooled, diluted in fresh medium, and added to 96-well plates at 5×10^4 cells/well. Cells were infected (final multiplicity of infection [MOI] of ≅0.1) in the presence of 9 different concentrations of test compounds (triplicate wells/concentration) and incubated for 7 days. To determine the level of virus inhibition, cell-free supernatant samples were collected for analysis of reverse transcriptase activity (Buckheit Jr., et al., 1991, AIDS Res. Hum. Retroviruses 7:295-302). Following removal of supernatant samples, compound cytotoxicity was measured by the addition of 3-(4,5-dimethylthiazol-2-yl)-5-(3-carboxymethoxyphenyl)-2-(4-sulfophenyl)-2H-tetrazolium (MTS; CellTiter 96 reagent; Promega) by following the manufacturer's instructions.
# 79:6089-6101; Jagodzinski et al., 2000, J. Clin. Microbiol. 38:1247-49; Michael et al., 1999, J. Clin. Microbiol. 37:2557-63 and Vahey et al., 1999, J. Clin. Microbiol. 37:2533-37); HIV-1 Group M isolate 931N101 (Subtype C, CCR5-tropic) from Dr. Robert Bollinger and the UNAIDS Network for HIV Isolation and Characterization (Gao et al., 1994, AIDS Res. Hum. Retroviruses 10:1359-68); HIV-1 Group M isolate CMUO8 (Subtype E, CXCR4-tropic) from Dr. Kenrad Nelson and the UNAIDS Network for HIV Isolation and Characterization (Gao et al., 1994, AIDS Res. Hum. Retroviruses 10:1359-68); HIV-1 Group M isolate G3 (Subtype G, CCR5-tropic) from Alash'le Abimiku (Abimiku et al., 1994, Aids Res. Hum. Retrovir. 10:1581-83); HIV-1 Group 0 isolate BCF02 (CCR5-tropic) from Sentob Saragosti, Françoise Brun-Vézinet, and François Simon (Loussertajaka et al., 1995, J. Virol. 69:5640-49); and SIV isolate Mac251 from Dr. Ronald Desrosiers (Daniel et al., 1985, Science 228:1201-04).
# [15] = Single-round infection assay, infection of U87 CD4-CXCR4 target cells in presence of compound; details: Human immunodeficiency virus 1, U87.CD4.CXCR4, read-out: IC50 against HIV-1
# [16] = test system: Vero cells; format: cell-based; details: at 100 μM; MTT or renilla luciferase cellular assay
# Description: as §1
# [17] = test system: recombinant luciferase-expressing HIV-1 bearing the envelope glycoprotein of the HIV-1YU-2 strain; assay: Single-round infection assay, HIV-1 with YU-2 envelope on Cf2Th-CCR5 cells; details: for activity in the single-round infection assay: Cf2Th-CCR5 cells, YU-2 envelope
# [18] = test system: single-round competent HIV-1NL4-3 virus; assay: Single-round assay, production of infectious virus from compound-treated producer cells
# [19] = biological target: CANTD (Human immunodeficiency virus type 1 group M subtype B, UniProt P12493); details: binding to CANTD; read-out: equilibrium dissociation constant (KD); cited from earlier work
smiles,measurement,setting,value
"CC1(C)CC(NC(=O)C(=O)Nc2ccc(Cl)cc2)CC(C)(C)N1 [CMPD-F, N1-(4-chlorophenyl)-N2-(2,2,6,6-tetramethylpiperidin-4-yl)oxalamide, reference compound]",interaction with sensor-chip immobilized HIV-1 CA,[1],displayed no such interaction
"O=C(O)c1ccc(-c2nc(-c3ccc4oc5ccc(-c6nc(-c7ccc(C(=O)O)cc7)[nH]c6-c6ccccc6)cc5c4c3)c(-c3ccccc3)[nH]2)cc1 [CMPD-A, 4,4′-(4,4′-(dibenzo[b,d]furan-2,8-diyl)bis(5-phenyl-1H-imidazole-4,2-diyl))dibenzoic acid]",IC50,[2],1250 nM
same,CC50,[3],35 µM
same,IC50,"[4]; Human immunodeficiency virus 1, fully infectious virus, P4-R5 MAGI cell line, read-out: IC50 for replication of HIV-1IIIB",89 ± 3.2 µM
same,inhibition of HIV-1IIIB replication,[4]; P4-R5 MAGI cells,retained the ability to inhibit
same,IC50,[5],7.66 µM
same,IC50,[6],4.95 µM
same,IC50,[7],8.35 µM
same,IC50,[8],2370 nM
same,activity against RSV,"[9]; CPE assay, up to 100 μM",active against RSV
same,IC50,"[9]; human respiratory syncytial virus, RSV, Vero cells",10.2 µM
same,cellular toxicity against the Vero cells,[10],no cellular toxicity
same,IC50,[11],1430 nM
same,IC50,[12],30 µM
same,LDH release versus untreated cells,[13],Neither CMPD-A nor CMPD-D promoted LDH release
same,inhibition of HIV-1 92BR030 replication in PBMCs,[14],displayed no activity; also recorded: unable to inhibit; also recorded: did not affect replication
same,IC50,[15],33.6 ± 0.31 µM
same,toxicity,[16],no toxicity
same,IC50,"[17]; Human immunodeficiency virus 1, Cf2Th-CCR5, read-out: IC50 against HIV-1 (single-round infection)",33.3 ± 0.31 µM
"Cc1ccc(C(C(=O)NC2CCCCC2)N(Cc2ccccc2Cl)C(=O)c2snc(C(=O)NC3CCCCC3)c2N)o1 (stereo not shown) [CMPD-D, 4-amino-N5-(2-chlorobenzyl)-N3-cyclohexyl-N5-(2-(cyclohexylamino)-1-(5-methylfuran-2-yl)-2-oxoethyl)isothiazole-3,5-dicarboxamide]","antiretroviral activity, assembly or post-integration event",[18],significant antiretroviral activity
same,LDH release versus untreated cells,[13],Neither CMPD-A nor CMPD-D promoted LDH release
same,activity in the single-round infection assay,[17],not to have any effect on HIV-1 infection
"Cc1ccc(NC(=O)NCCSCc2ccc(CN(C)C)o2)cc1Cl [CAP-1, N-(3-chloro-4-methylphenyl)-N′-[2-[([5-[(dimethylamino)-methyl]-2-furyl]-methyl)-sulfanyl]ethyl]urea]",Kd,[19],~800 µM
"COC(=O)c1ccc(-c2nc(-c3ccc4oc5ccc(-c6nc(-c7ccc(C(=O)OC)cc7)[nH]c6-c6ccccc6)cc5c4c3)c(-c3ccccc3)[nH]2)cc1 [CMPD-B, dimethyl 4,4′-(4,4′-(dibenzo[b,d]furan-2,8-diyl)bis(5-phenyl-1H-imidazole-4,2-diyl))dibenzoate]",activity in the single-round infection assay,[17],lost all activity
"O=C(O)c1ccc(-c2nc(-c3ccccc3)c(-c3ccc4oc5ccccc5c4c3)[nH]2)cc1 [CMPD-C, 4-(5-(dibenzo[b,d]furan-2-yl)-4-phenyl-1H-imidazol-2-yl)benzoic acid]",activity in the single-round infection assay,[17],retained the activity of the parental molecule
